Tests used:
[1] = system: weed plants such as Sinapis alba, Chrysanthemum segetum, Avena sativa, Stellaria media, Echinochloa crus-galli, Lolium multiflorum, Setaria viridis, Abutilon …; test: Pre-emergence effect on weeds (greenhouse pot test, visual scoring); assay type: in vivo; conditions: applied pre-emergence at a rate of 0.3 kg or less of active substance per hectare; visual scoring after 3 to 4 weeks vs untreated controls
Excerpt: Seeds or sections of rhizome from monocot and dicot weed plants were laid out in sandy loam soil in cardboard pots, and covered with soil. The compounds of the invention, formulated as wettable powders or emulsifiable concentrates, were then applied, in the form of aqueous suspensions or emulsions, at various dosages, onto the surface of the covering earth, at an application rate of 600 to 800 l of water per hectare (converted). Following the treatment, the pots were placed in a greenhouse and maintained under good growth conditions for the weeds. Visual scoring of the plant damage or emergence damage was made when the test plants had emerged, after a test time of 3 to 4 weeks, in comparison to untreated controls.

[2] = system: weed plants such as Sinapis alba, Echinochloa crus-galli, Lolium multiflorum, Chrysanthemum segetum, Setaria viridis, Abutilon theophrasti, Amaranthus …; test: Post-emergence effect on weeds (greenhouse pot test, visual scoring); assay type: in vivo; conditions: applied post-emergence (three-leaf stage) at a rate of 0.3 kg or less of active substance per hectare; visual scoring after about 3 to 4 weeks vs untreated controls
Method: Seeds or sections of rhizome from monocot and dicot broadleaf weeds were laid out in sandy loam soil in plastic pots, covered with earth, and cultivated in a greenhouse under good growth conditions. Three weeks after sowing, the test plants were treated at the three-leaf stage. The compounds of the invention, formulated as wettable powders or as emulsion concentrates, were sprayed in different dosages onto the green parts of the plants, at an application rate of 600 to 800 l of water per hectare (converted). After the test plants had stood in the greenhouse under optimum growth conditions for a period of about 3 to 4 weeks, the effect of the products was scored visually in comparison to untreated controls.

Row | SMILES | herbicidal action against weed plants, pre-emergence [1] | herbicidal action against weed plants, post-emergence [2]
1 | COc1cc(Cl)nc(NC(=O)NS(=O)(=O)c2c(I)cccc2C(F)(F)F)n1 [Compound 1.100] | very good herbicidal action | very good herbicidal action
2 | CCC(C)Oc1cccc(I)c1S(=O)(=O)NC(=O)Nc1nc(OC)nc(OC)n1 (stereo not shown) [Compound 1.560] | very good herbicidal action | very good herbicidal action
3 | COc1cc(OC)nc(NC(=O)NS(=O)(=O)c2c(I)cccc2OC(C)C(F)(F)F)n1 (stereo not shown) [Compound 1.362] | very good herbicidal action | very good herbicidal action
4 | CCCCOc1cccc(I)c1S(=O)(=O)NC(=O)Nc1nc(Cl)cc(OC)n1 [Compound 1.555] | very good herbicidal action | very good herbicidal action
5 | COc1nc(NC(=O)NS(=O)(=O)c2c(I)cccc2OS(=O)(=O)N(C)C)nc(OC)n1 [Compound 1.511] | very good herbicidal action | very good herbicidal action
6 | CSc1cccc(I)c1S(=O)(=O)NC(=O)Nc1nc(C)cc(C)n1 [Compound 1.550] | very good herbicidal action | very good herbicidal action
7 | COc1nc(C)nc(NC(=O)NS(=O)(=O)c2c(I)cccc2OC(F)F)n1 [Compound 1.325] | very good herbicidal action | very good herbicidal action
8 | COc1cc(OC)nc(NC(=O)NS(=O)(=O)c2c(I)cccc2OS(=O)(=O)N(C)C)n1 [Compound 1.507] | very good herbicidal action | very good herbicidal action
9 | Cc1cc(C)nc(NC(=O)NS(=O)(=O)c2c(I)cccc2OC(C)C(F)(F)F)n1 (stereo not shown) [Compound 1.364] | very good herbicidal action | very good herbicidal action
10 | CCC(C)Oc1cccc(I)c1S(=O)(=O)NC(=O)Nc1nc(OC)cc(OC)n1 (stereo not shown) [Compound 1.196] | very good herbicidal action | very good herbicidal action
11 | CCCCOc1cccc(I)c1S(=O)(=O)NC(=O)Nc1nc(C)cc(C)n1 [Compound 1.554] | very good herbicidal action | very good herbicidal action
12 | COc1nc(NC(=O)NS(=O)(=O)c2c(C)cccc2I)nc(OC)n1 [Compound 1.025] | very good herbicidal action | very good herbicidal action
13 | Cc1cc(C)nc(NC(=O)NS(=O)(=O)c2c(I)cccc2OCC(F)F)n1 [Compound 1.353] | very good herbicidal action | very good herbicidal action
14 | COc1cc(OC)nc(NC(=O)NS(=O)(=O)c2c(I)cccc2OCC2CC2)n1 [Compound 1.229] | very good herbicidal action | very good herbicidal action
15 | COc1nc(NC(=O)NS(=O)(=O)c2c(I)cccc2OCC2CC2)nc(OC)n1 [Compound 1.242] | very good herbicidal action | very good herbicidal action
16 | CCCOc1cccc(I)c1S(=O)(=O)NC(=O)Nc1nc(Cl)cc(OC)n1 [Compound 1.174] | very good herbicidal action | very good herbicidal action
17 | COc1cc(Cl)nc(NC(=O)NS(=O)(=O)c2c(OC)ccc(Cl)c2I)n1 [Compound 1.601] | very good herbicidal action | very good herbicidal action
